# According to US20200038414A1, “METHODS OF TREATING CONSTIPATION USING AMINOSTEROL COMPOSITIONS” (Enterin, Inc., priority 2018, published 2020):
# Values joined by “and” are separate entries in the source; they are usually repeats but may differ in a detail not shown here. Identical values can stand only once.
# Experiments:
# [1] = system: PD patients with constipation; assay: Phase 2 trial Stage 2: bowel function under daily oral dosing (escalation, fixed dose, randomization, wash-out); format: in vivo, human; details: for CSBM/week: randomized cohort
# Experimental: In Stage 2, 34 patients were evaluated.
# The primary efficacy outcome variable was whether or not a subject was a “success” or “failure”. This is an endpoint based on subject diary entries for the “fixed dose” period prior to the endpoint assessment defined as average complete stool frequency increase by 1 or more over baseline, or 3 or more complete spontaneous stools/week. The subject was deemed a “success” if s/he met one or more of the criteria listed above, otherwise the subject was deemed a “failure”. The primary analysis was based on all subjects with a baseline assessment and an assessment at the end of the “fixed-dose” period and was a comparison of the proportion of successes with 0.10 (the null hypothesis corresponding to no treatment effect).
# [2] = system: PD patients with constipation; assay: Phase 2 trial Stage 1: adverse events; format: in vivo, human; details: Stage 1, dosed 10
# Description: Tolerability limits included diarrhea or vomiting.
# [3] = system: PD patients with constipation; assay: Phase 2 trial, both Stages: adverse events in all dosed patients (n = 44); format: in vivo, human
# Experimental: Adverse events were coded using the current version of MedDRA. Severity of AEs were assessed by investigators according to CTCAE (v4.03): Grade 1 is labeled as Mild, Grade 2 as Moderate, and Grade 3 and above as Severe. […] The number (percentage) of subjects who experienced an AE during escalation and fixed dosing periods were summarized by dose level and overall for each stage. The denominator for calculating the percentages were based on the number of subjects ever exposed to each dose and overall.
# [4] = system: PD patients with constipation; assay: Phase 2 trial Stage 2: CNS symptoms (UPDRS, MMSE, PDHQ, BDI-II); format: in vivo, human; details: for PDHQ (Mean): baseline 1.3 (2.99); for BDI-II (Mean): baseline 10.9 (7.12)
# Experimental: (9) Unified Parkinson's Disease Rating Scale (UPDRS), which consists of 42 items in four subscales (Part I=Non-Motor Aspects of Experiences of Daily Living (nM-EDL) (1.1 cognitive impairment, 1.2 hallucinations and psychosis, 1.3 depressed mood; Part II=Motor Aspects of Experiences of Daily Living (M-EDL), Part III=Motor Examination, and Part IV=Motor Complications;
# Assessments were made at baseline and at the end of the fixed dose and washout periods. Circadian system status was evaluated by continuously monitoring wrist skin temperature (Thermochron iButton DS1921H; Maxim, Dallas) following published procedures (Sarabia et al. 2008).
# An exploratory analysis was done with respect to the sleep data, the body temperature data, mood, fatigue, hallucinations, cognition and other motor and non-motor symptoms of PD. Continuous measurements within a subject were compared with a paired t-test and continuous measurements between subject groups were compared with a two-group t-test. Categorical data were compared with a chi-squared test or a Fisher's exact test if the expected cell counts are too small for a chi-squared test.
# CNS symptoms were evaluated at baseline and at the end of the fixed dose period and the wash-out period (Table 11). Total UPDRS score was 64.4 at baseline, 60.6 at the end of the fixed dose period and 55.7 at the end of the wash-out period (p=0.002); similarly, the motor component of the UPDRS improved from 35.3 at baseline to 33.3 at the end of fixed dose to 30.2 at the end of wash-out (p=0.006). MMSE improved from 28.4 at baseline to 28.7 during treatment and to 29.3 during wash-out (p=0.0006). […] PDHQ improved from 1.3 at baseline to […] during treatment and 0.9 during wash-out (p=0.03). Hallucinations were reported by 5 patients at baseline and delusions in 1 patient. […] Unlike stool-related indices, the improvement in many CNS symptoms persisted during wash-out.
# αS = αS (Homo sapiens, UniProt P37840); details: in vitro; cited from earlier work
# C. elegans model of PD = C. elegans model of PD in vivo; cited from earlier work
smiles,measurement,setting,value
"CC(C)[C@@H](CC[C@@H](C)[C@H]1CC[C@H]2[C@@H]3[C@H](O)C[C@H]4C[C@@H](NCCCNCCCCN)CC[C@]4(C)[C@H]3CC[C@]12C)OS(=O)(=O)O (single isomer, unassigned) [squalamine (ENT-01)]","CSBM, weekly average (mean, SD)","[1]; Stage 2, fixed dose, n = 34, baseline 1.2 (0.90), P 2.3 × 10^−8",3.8 /week and 3.8 (2.40) /week
same,"Suppository use / rescue medication, weekly average (mean, SD)","[1]; Stage 2, fixed dose, n = 34, baseline 1.8 (1.92), P 1.33 × 10^−5",0.3 /week and 0.3 (0.67) /week
same,"SBM, weekly average (mean, SD)","[1]; Stage 2, fixed dose, n = 34, baseline 2.6 (1.45), P 6.4 × 10^−6",4.5 /week and 4.5 (2.21) /week
same,"Consistency (Mean, SD)","[1]; Stage 2, wash-out, Bristol stool scale, baseline 2.7 (1.20), P vs. baseline 0.85",2.8 (1.39)
same,"CSBM (Mean, SD)","[1]; Stage 2, wash-out, baseline 1.2 (0.90), P wash-out vs. baseline 0.01",1.8 (1.19) /week
same,"PAQ-SYM (Mean, SD)","[1]; Stage 2, wash-out, baseline 1.3 (0.45), P vs. baseline 0.11",1.1 (0.60)
same,"PAQ-QOL (Mean, SD)","[1]; Stage 2, wash-out, baseline 1.4 (0.49), P vs. baseline 0.04",1.2 (0.63)
same,"Rescue meds (Mean, SD)","[1]; Stage 2, wash-out, baseline 1.8 (1.92), P vs. baseline 0.13",1.0 (1.40) /week
same,"SBM (Mean, SD)","[1]; Stage 2, wash-out, baseline 2.6 (1.45), P vs. baseline 0.16",3.2 (1.80) /week
same,"Ease (Mean, SD)","[1]; Stage 2, wash-out, ease of evacuation scale, baseline 3.2 (0.73), P vs. baseline 0.78",3.3 (0.81)
same,improvement of SBM/week,[1]; fixed dose vs baseline (2.6 to 4.5),73%
same,mean dose required for a prokinetic response,"[1]; patients with baseline ≥1 CSBM/week, relation to baseline severity p=0.00055",120 mg
same,CSBM/week,"[1]; Treatment arm (n = 6), fixed dose period, baseline 0.8",3.2 CSBM/week
same,CSBM/week,"[1]; Treatment arm (n = 6), randomized period (4-6 days), baseline 0.8",2.4 CSBM/week
same,CSBM/week,"[1]; Treatment arm (n = 6), washout, baseline 0.8",0.9 CSBM/week
same,CSBM/week,"[1]; patients later given placebo (n = 9), fixed dose period on drug, baseline 1.6",3.3 CSBM/week
same,"adverse event: Abdominal pain, Mild",[2],"2 (20) n, %"
same,"adverse event: Abdominal pain, Moderate",[2],"3 (30) n, %"
same,"adverse event: Diarrhea, Mild",[2],"1 (10) n, %"
same,"adverse event: Diarrhea, Moderate",[2],"3 (30) n, %"
same,"adverse event: Diarrhea, Severe",[2],"0 n, %"
same,"adverse event: Difficulty falling asleep, Mild",[2],"0 n, %"
same,"adverse event: Difficulty falling asleep, Moderate",[2],"0 n, %"
same,"adverse event: Dizziness, Mild",[2],"0 n, %"
same,"adverse event: Dizziness, Moderate",[2],"0 n, %"
same,"adverse event: Eye infection, Mild",[2],"0 n, %"
same,"adverse event: Eye infection, Moderate",[2],"0 n, %"
same,"adverse event: Flatulence, Mild",[2],"2 (20) n, %"
same,"adverse event: Flatulence, Moderate",[2],"0 n, %"
same,"adverse event: Headache, Mild",[2],"1 (10) n, %"
same,"adverse event: Headache, Moderate",[2],"0 n, %"
same,"adverse event: Increased urinary frequency, Mild",[2],"0 n, %"
same,"adverse event: Increased urinary frequency, Moderate",[2],"0 n, %"
same,"adverse event: Nausea, Mild",[2],"4 (40) n, %"
same,"adverse event: Nausea, Moderate",[2],"0 n, %"
same,"adverse event: Skin lesions-rash, Mild",[2],"0 n, %"
same,"adverse event: Skin lesions-rash, Moderate",[2],"0 n, %"
same,"adverse event: Urinary retention, Mild",[2],"0 n, %"
same,"adverse event: Urinary retention, Moderate",[2],"0 n, %"
same,"adverse event: Urinary tract infection, Mild",[2],"0 n, %"
same,"adverse event: Urinary tract infection, Moderate",[2],"0 n, %"
same,"adverse event: Vomiting, Mild",[2],"1 (10) n, %"
same,"adverse event: Vomiting, Moderate",[2],"0 n, %"
same,"adverse event: Worsening acid reflux, Mild",[2],"0 n, %"
same,"adverse event: Worsening acid reflux, Moderate",[2],"0 n, %"
same,"adverse event: Worsening hemorrhoid, Mild",[2],"0 n, %"
same,"adverse event: Worsening hemorrhoid, Moderate",[2],"0 n, %"
same,"adverse event: Blood in urine, Mild",[2]; unrelated to ENT-01,"1 (10) n, %"
same,"adverse event: Blood in urine, Moderate",[2]; unrelated to ENT-01,"0 n, %"
same,"adverse event: Loss of appetite, Mild",[2]; unrelated to ENT-01,"1 (10) n, %"
same,"adverse event: Loss of appetite, Moderate",[2]; unrelated to ENT-01,"0 n, %"
same,"adverse event: Lower GI bleed, Severe",[2]; unrelated to ENT-01,"0 n, %"
same,patients with worsening of hemorrhoids,[3]; 1/44,2.2%
same,patients with worsening of acid reflux,[3]; 2/44,4.5%
same,patients with flatulence,[3]; 3/44,6.8%
same,patients with vomiting,[3]; 3/44,6.8%
same,patients with dizziness,[3]; 8/44,18%
same,patients with abdominal pain,[3]; 11/44,32%
same,PDHQ (Mean),"[4]; Stage 2, fixed dose, n = 34, P 0.45",1.8
same,BDI-II (Mean),"[4]; Stage 2, fixed dose, n = 34, P 0.14",9.9
same,PDHQ (Mean),"[4]; Stage 2, wash-out, n = 34, P 0.03",0.9
same,BDI-II (Mean),"[4]; Stage 2, wash-out, n = 34, P 0.10",8.7
same,UPDRS Part 1 (NMS) (Mean),"[4]; Stage 2, wash-out, n = 34, baseline 11.6 (6.51), P 0.06",9.5
same,patients in whom hallucinations and delusions improved or disappeared,"[4]; during treatment, hallucinations in 5 patients and delusions in 1 patient at baseline",5 of 6
same,effect on formation of aggregates of αS,αS,inhibit the formation of aggregates of αS
same,effect on formation of aggregates of αS,C. elegans model of PD,inhibit the formation of aggregates of αS
